ChEMBL document CHEMBL1201862, “PubChem BioAssay data set” (2004)
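Each compound was tested at five concentrations against cells in 96-well plates for 48 hours. Here, GI50 denotes the concentration required for 50% inhibition of growth.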 The source made the active and inactive calls. Rule as the data show it: active = GI50 up to about 1.1 µM and inactive = higher.

What was measured:
Assay in all cases: DTP human tumour cell line panel, 48 h
[1] = tested on: 786-0
[2] = tested on: EKVX
[3] = tested on: HOP-62
[4] = tested on: HT-29
[5] = tested on: K562
[6] = tested on: MDA-MB-231
[7] = tested on: MDA-N
[8] = tested on: NCI-H226
[9] = tested on: OVCAR-3
[10] = tested on: OVCAR-4
[11] = tested on: OVCAR-5
[12] = tested on: RXF 393
[13] = tested on: SF-295
[14] = tested on: SF-539
[15] = tested on: SK-MEL-2
[16] = tested on: SK-MEL-5
[17] = tested on: SNB-19
[18] = tested on: SNB-75
[19] = tested on: SR
[20] = tested on: UACC-257

COc1ccccc1C1C2=C(COC2=O)Oc2cc3c(cc21)OCO3 (stereo unspecified)
GI50 [1]: 3.18 µM (inactive)
GI50 [2]: 2.29 µM (inactive)
GI50 [3]: 3.93 µM (inactive)
GI50 [4]: 1.65 µM (inactive)
GI50 [5]: 0.706 µM (active)
GI50 [6]: 3.45 µM (inactive)
GI50 [7]: 0.245 µM (active)
GI50 [8]: 5.31 µM (inactive)
GI50 [9]: 2.55 µM (inactive)
GI50 [10]: 11.7 µM (inactive)
GI50 [11]: 11 µM (inactive)
GI50 [12]: 1.69 µM (inactive)
GI50 [13]: 2.17 µM (inactive)
GI50 [14]: 1.97 µM (inactive)
GI50 [15]: 5.15 µM (inactive)
GI50 [16]: 1.93 µM (inactive)
GI50 [17]: 3.19 µM (inactive)
GI50 [18]: 3.51 µM (inactive)
GI50 [19]: 0.792 µM (active)
GI50 [20]: 21.1 µM (inactive)

CCCCC(=O)Nc1ccc2cc(C(=O)OC)c(ON3C(=O)c4ccccc4C3=O)nc2n1
GI50 [1]: 17 µM (inactive)
GI50 [2]: 33.1 µM (inactive)
GI50 [3]: 18.6 µM (inactive)
GI50 [5]: 33.2 µM (inactive)
GI50 [6]: 38.9 µM (inactive)
GI50 [7]: 22.3 µM (inactive)
GI50 [8]: 22.5 µM (inactive)
GI50 [9]: 37.1 µM (inactive)
GI50 [10]: 28.1 µM (inactive)
GI50 [11]: 23 µM (inactive)
GI50 [12]: 20.5 µM (inactive)
GI50 [13]: 33.8 µM (inactive)
GI50 [14]: 18 µM (inactive)
GI50 [15]: 37.5 µM (inactive)
GI50 [16]: 63.8 µM (inactive)
GI50 [17]: 27.9 µM (inactive)
GI50 [18]: 28.6 µM (inactive)
GI50 [19]: 36.4 µM (inactive)
GI50 [20]: 23.5 µM (inactive)

COc1ccccc1Cn1c2c(c3cc(O)ccc31)C(=O)c1ccccc1C2=O
GI50 [1]: 13.3 µM (inactive)
GI50 [3]: 16.1 µM (inactive)
GI50 [4]: > 100 µM (inactive)
GI50 [5]: > 100 µM (inactive)
GI50 [6]: 12.4 µM (inactive)
GI50 [7]: > 100 µM (inactive)
GI50 [8]: 21.6 µM (inactive)
GI50 [9]: 28.9 µM (inactive)
GI50 [10]: 3.21 µM (inactive)
GI50 [11]: 10.4 µM (inactive)
GI50 [12]: 2.6 µM (inactive)
GI50 [13]: 11.2 µM (inactive)
GI50 [14]: 12.7 µM (inactive)
GI50 [15]: 38.6 µM (inactive)
GI50 [16]: 37.2 µM (inactive)
GI50 [17]: 27.1 µM (inactive)
GI50 [18]: 19.2 µM (inactive)
GI50 [19]: 52.8 µM (inactive)
GI50 [20]: > 100 µM (inactive)

CN(C)NC(=S)Nc1ccccc1Br
GI50 [1]: > 100 µM (inactive)
GI50 [2]: > 100 µM (inactive)
GI50 [4]: > 100 µM (inactive)
GI50 [5]: > 100 µM (inactive)
GI50 [6]: > 100 µM (inactive)
GI50 [7]: > 100 µM (inactive)
GI50 [8]: > 100 µM (inactive)
GI50 [9]: > 100 µM (inactive)
GI50 [10]: > 100 µM (inactive)
GI50 [11]: > 100 µM (inactive)
GI50 [12]: > 100 µM (inactive)
GI50 [13]: > 100 µM (inactive)
GI50 [14]: > 100 µM (inactive)
GI50 [15]: > 100 µM (inactive)
GI50 [16]: > 100 µM (inactive)
GI50 [17]: > 100 µM (inactive)
GI50 [18]: 46.5 µM (inactive)
GI50 [19]: > 100 µM (inactive)
GI50 [20]: > 100 µM (inactive)

O=CC(=C(I)I)c1ccccc1
GI50 [1]: 2.14 µM (inactive)
GI50 [2]: 11.5 µM (inactive)
GI50 [3]: 7.24 µM (inactive)
GI50 [4]: 3.04 µM (inactive)
GI50 [5]: 0.264 µM (active)
GI50 [6]: 2.87 µM (inactive)
GI50 [7]: 2.04 µM (inactive)
GI50 [8]: 13.4 µM (inactive)
GI50 [9]: 1.98 µM (inactive)
GI50 [10]: 2.03 µM (inactive)
GI50 [11]: 6.75 µM (inactive)
GI50 [12]: 1.88 µM (inactive)
GI50 [13]: 7.78 µM (inactive)
GI50 [14]: 2.35 µM (inactive)
GI50 [15]: 6.49 µM (inactive)
GI50 [16]: 4.07 µM (inactive)
GI50 [17]: 7.78 µM (inactive)
GI50 [18]: 2.64 µM (inactive)
GI50 [19]: 0.197 µM (active)
GI50 [20]: 2.9 µM (inactive)

COc1cc(C2c3cc4c(cc3OC(NCCO)C2C)OCO4)cc(OC)c1OC (stereo unspecified)
GI50 [1]: 1.8 µM (inactive)
GI50 [2]: 13.1 µM (inactive)
GI50 [3]: 0.289 µM (active)
GI50 [4]: 0.369 µM (active)
GI50 [5]: 0.195 µM (active)
GI50 [6]: 1.6 µM (inactive)
GI50 [7]: 0.401 µM (active)
GI50 [8]: 0.644 µM (active)
GI50 [9]: 0.244 µM (active)
GI50 [10]: 12.7 µM (inactive)
GI50 [11]: 7.48 µM (inactive)
GI50 [12]: 0.426 µM (active)
GI50 [13]: 0.274 µM (active)
GI50 [14]: 0.232 µM (active)
GI50 [15]: 3.42 µM (inactive)
GI50 [16]: 0.323 µM (active)
GI50 [17]: 1.32 µM (inactive)
GI50 [18]: 1.12 µM (inactive)
GI50 [19]: 0.248 µM (active)
GI50 [20]: 1.61 µM (inactive)

Cc1cc2c(c(S(=O)(=O)c3ccccc3[N+](=O)[O-])c1)NCCC2
GI50 [1]: > 100 µM (inactive)
GI50 [2]: > 100 µM (inactive)
GI50 [3]: > 100 µM (inactive)
GI50 [4]: > 100 µM (inactive)
GI50 [6]: > 100 µM (inactive)
GI50 [7]: 34.8 µM (inactive)
GI50 [8]: > 100 µM (inactive)
GI50 [9]: 65.2 µM (inactive)
GI50 [10]: 23.5 µM (inactive)
GI50 [11]: > 100 µM (inactive)
GI50 [12]: > 100 µM (inactive)
GI50 [13]: 55.6 µM (inactive)
GI50 [14]: > 100 µM (inactive)
GI50 [15]: 51.4 µM (inactive)
GI50 [16]: 18.7 µM (inactive)
GI50 [17]: > 100 µM (inactive)
GI50 [18]: > 100 µM (inactive)
GI50 [19]: > 100 µM (inactive)

COC(=O)/C(C#N)=C1\NC(=O)CC(c2ccccc2)C1C#N (stereo unspecified)
GI50 [1]: > 100 µM (inactive)
GI50 [2]: > 100 µM (inactive)
GI50 [3]: > 100 µM (inactive)
GI50 [4]: > 100 µM (inactive)
GI50 [5]: > 100 µM (inactive)
GI50 [6]: > 100 µM (inactive)
GI50 [7]: > 100 µM (inactive)
GI50 [8]: > 100 µM (inactive)
GI50 [9]: > 100 µM (inactive)
GI50 [10]: > 100 µM (inactive)
GI50 [11]: > 100 µM (inactive)
GI50 [12]: > 100 µM (inactive)
GI50 [13]: > 100 µM (inactive)
GI50 [14]: > 100 µM (inactive)
GI50 [15]: > 100 µM (inactive)
GI50 [16]: > 100 µM (inactive)
GI50 [17]: > 100 µM (inactive)
GI50 [18]: > 100 µM (inactive)
GI50 [19]: > 100 µM (inactive)
GI50 [20]: > 100 µM (inactive)

FC(F)(Sc1ncc[nH]1)c1nc2ccccc2o1
GI50 [1]: > 100 µM (inactive)
GI50 [3]: > 100 µM (inactive)
GI50 [4]: > 100 µM (inactive)
GI50 [5]: > 100 µM (inactive)
GI50 [6]: > 100 µM (inactive)
GI50 [7]: > 100 µM (inactive)
GI50 [8]: > 100 µM (inactive)
GI50 [9]: > 100 µM (inactive)
GI50 [10]: > 100 µM (inactive)
GI50 [11]: > 100 µM (inactive)
GI50 [12]: > 100 µM (inactive)
GI50 [13]: > 100 µM (inactive)
GI50 [14]: > 100 µM (inactive)
GI50 [15]: > 100 µM (inactive)
GI50 [16]: > 100 µM (inactive)
GI50 [18]: > 100 µM (inactive)
GI50 [19]: > 100 µM (inactive)
GI50 [20]: > 100 µM (inactive)

CCOC1Oc2ccccc2-c2nc(N)ncc21 (stereo unspecified)
GI50 [1]: 58.7 µM (inactive)
GI50 [2]: 45.1 µM (inactive)
GI50 [4]: 34.8 µM (inactive)
GI50 [6]: 99.3 µM (inactive)
GI50 [7]: 31.6 µM (inactive)
GI50 [8]: 61.9 µM (inactive)
GI50 [9]: 57 µM (inactive)
GI50 [10]: > 100 µM (inactive)
GI50 [11]: > 100 µM (inactive)
GI50 [12]: 37.7 µM (inactive)
GI50 [13]: 34.1 µM (inactive)
GI50 [14]: 33.4 µM (inactive)
GI50 [15]: > 100 µM (inactive)
GI50 [16]: 42.8 µM (inactive)
GI50 [17]: > 100 µM (inactive)
GI50 [18]: 34 µM (inactive)
GI50 [19]: 24.9 µM (inactive)
GI50 [20]: 55.2 µM (inactive)

COc1c(CC=C(C)C)c(O)c(C(CC(C)C)c2c(O)c(CC=C(C)C)c(O)c(C(C)=O)c2O)c(O)c1C(C)=O (stereo unspecified)
GI50 [1]: 1.63 µM (inactive)
GI50 [2]: 1.04 µM (active)
GI50 [3]: 1.4 µM (inactive)
GI50 [4]: 0.723 µM (active)
GI50 [5]: 0.29 µM (active)
GI50 [6]: 1.64 µM (inactive)
GI50 [7]: 2.16 µM (inactive)
GI50 [8]: 1.24 µM (inactive)
GI50 [9]: 1.15 µM (inactive)
GI50 [10]: 1.44 µM (inactive)
GI50 [11]: 4.9 µM (inactive)
GI50 [12]: 0.427 µM (active)
GI50 [13]: 0.521 µM (active)
GI50 [14]: 1.16 µM (inactive)
GI50 [15]: 0.504 µM (active)
GI50 [16]: 0.482 µM (active)
GI50 [17]: 1.15 µM (inactive)
GI50 [18]: 1.69 µM (inactive)
GI50 [19]: 1.1 µM (active)
GI50 [20]: 1.45 µM (inactive)
